Measured values published in patent US20090062273A1, “3-H-pyrazolopyridines and salts thereof, pharmaceutical compositions comprising same, methods of preparing same and uses of same” (priority 2006, published 2009).

How the values were obtained:
Tie2 [1] = target: T1, Tie2 (Homo sapiens, UniProt Q02763); assay: Tie2 ELISA assay (cellular Tie2 autophosphorylation); assay type: cell-based; parameters: expressed in transfected cells; host or cells: CHO (CHO Tie2/DHFR); settings: CHO cells stably transfected with Tie2, stimulated by angiopoietin-2; Tie2 autophosphorylation by sandwich-ELISA; read-out: Tie 2 activity (assay 1)
Target sequence in this assay (Q02763 23-1124, species assumed): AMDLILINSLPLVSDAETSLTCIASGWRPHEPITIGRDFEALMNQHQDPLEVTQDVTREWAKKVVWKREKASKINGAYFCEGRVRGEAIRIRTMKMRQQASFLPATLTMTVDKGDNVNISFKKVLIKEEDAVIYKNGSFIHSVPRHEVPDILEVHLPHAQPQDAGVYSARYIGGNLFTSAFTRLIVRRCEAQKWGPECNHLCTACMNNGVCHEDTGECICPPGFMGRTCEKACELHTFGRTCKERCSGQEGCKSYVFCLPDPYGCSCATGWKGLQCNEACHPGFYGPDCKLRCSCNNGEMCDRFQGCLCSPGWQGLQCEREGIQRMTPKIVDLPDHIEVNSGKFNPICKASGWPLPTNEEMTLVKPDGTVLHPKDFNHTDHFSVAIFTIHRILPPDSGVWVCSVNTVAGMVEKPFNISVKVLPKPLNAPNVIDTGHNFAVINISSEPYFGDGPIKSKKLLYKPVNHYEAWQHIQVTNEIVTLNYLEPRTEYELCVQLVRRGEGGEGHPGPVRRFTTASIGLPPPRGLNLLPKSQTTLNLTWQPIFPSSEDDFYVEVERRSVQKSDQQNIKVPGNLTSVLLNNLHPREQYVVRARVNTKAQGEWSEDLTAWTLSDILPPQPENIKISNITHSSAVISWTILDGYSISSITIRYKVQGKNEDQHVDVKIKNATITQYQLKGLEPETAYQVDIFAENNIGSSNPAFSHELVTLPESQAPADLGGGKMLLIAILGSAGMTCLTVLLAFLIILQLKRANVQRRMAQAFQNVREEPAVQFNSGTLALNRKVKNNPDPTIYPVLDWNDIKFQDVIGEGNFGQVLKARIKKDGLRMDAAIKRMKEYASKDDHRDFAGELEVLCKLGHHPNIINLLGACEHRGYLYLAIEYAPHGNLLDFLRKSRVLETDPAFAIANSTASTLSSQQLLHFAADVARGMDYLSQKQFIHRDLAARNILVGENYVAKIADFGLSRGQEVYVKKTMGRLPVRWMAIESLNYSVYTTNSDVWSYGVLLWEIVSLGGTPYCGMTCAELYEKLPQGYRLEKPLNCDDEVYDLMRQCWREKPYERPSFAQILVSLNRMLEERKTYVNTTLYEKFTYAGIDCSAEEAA

Tie2 [2] = target: T1, Tie2; assay: Tie-2-Kinase HTRF-Assay without kinase preactivation; assay type: biochemical; parameters: fusion protein of GST and the intracellular domains of Tie-2; GST; made in house; host or cells: insect cells (Hi-5); settings: GST-Tie-2 intracellular domains, 10 μM ATP
In short: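 GST fusion of the Tie-2 intracellular domains from insect cells, not preactivated, run 60 min at 22 °C with 10 μM ATP and 1 μM biotinylated peptide, HEPES pH 7 with MgCl2/MnCl2, 1% DMSO; compounds 0.001-20 μM. EDTA stop, HTRF 665/620 nm ratio; IC50 by 4-parameter fit.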
Target sequence in this assay (Q02763 770-1124 limits assumed, species assumed): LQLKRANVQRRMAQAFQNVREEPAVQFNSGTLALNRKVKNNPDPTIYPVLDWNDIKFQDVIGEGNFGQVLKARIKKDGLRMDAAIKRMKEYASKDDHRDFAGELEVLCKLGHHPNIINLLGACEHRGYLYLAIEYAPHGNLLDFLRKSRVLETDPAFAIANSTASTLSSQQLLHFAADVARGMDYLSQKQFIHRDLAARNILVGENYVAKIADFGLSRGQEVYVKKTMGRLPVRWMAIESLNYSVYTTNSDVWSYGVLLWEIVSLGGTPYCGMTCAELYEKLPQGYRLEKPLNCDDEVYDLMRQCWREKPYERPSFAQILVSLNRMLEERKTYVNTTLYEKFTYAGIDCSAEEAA

| Compound | IC50 (Tie2 [1]) [nM] | IC50 (Tie2 [2]) [nM] |
| --- | --- | --- |
| Cn1ncc2c(-c3ccc(NC(=O)Nc4cc(C(C)(C)C)nn4-c4cncc(F)c4)cc3)cncc21 [Example 15.12, 1-[5-tert-Butyl-2-(5-fluoro-pyridin-3-yl)-2H-pyrazol-3-yl]-3-[4-(1-methyl-1H-pyrazolo[3,4-c]pyridin-4-yl)-phenyl]-urea] | < 501 | < 501 |
| Cn1ncc2c(-c3ccc(NC(=O)Nc4cc(C(C)(C)C)nn4-c4cncc(F)c4)c(F)c3)cncc21 [Example 15.13, 1-[5-tert-Butyl-2-(5-fluoro-pyridin-3-yl)-2H-pyrazol-3-yl]-3-[2-fluoro-4-(1-methyl-1H-pyrazolo[3,4-c]pyridin-4-yl)-phenyl]-urea] | < 501 | < 501 |
